Patent US9725468B2, “C5-spiro iminothiazine dioxides as BACE inhibitors, compositions, and their use” (Merck Sharp & Dohme Corp., priority 2013, dated 2017)

What was measured:
[1] = molecular target: soluble human BACE1 catalytic domain (Homo sapiens, UniProt P56817); test: BACE1 HTRF FRET Assay; type: biochemical; settings: Ki calculated from IC50 using the Cheng-Prusoff equation; QSY7-APPswe-Eu substrate 200 nM, pH 5.0
From the text: Na^+-Acetate pH 5.0; 1% Brij-35; Glycerol; Dimethyl Sulfoxide (DMSO); Recombinant human soluble BACE1 catalytic domain (>95% pure); APP Swedish mutant peptide substrate (QSY7-APP^swe-Eu): QSY7-EISEVNLDAEFC-Europium-amide.
A homogeneous time-resolved FRET assay can be used to determine IC50 values for inhibitors of the soluble human BACE1 catalytic domain. This assay monitors the increase of 620 nm fluorescence that resulted from BACE1 cleavage of an APPswedish APP^swe mutant peptide FRET substrate (QSY7-EISEVNLDAEFC-Europium-amide). This substrate contains an N-terminal QSY7 moiety that serves as a quencher of the C-terminal Europium fluorophore (620 nm Em). In the absence of enzyme activity, 620 nm fluorescence is low in the assay and increased linearly over 3 hours in the presence of uninhibited BACE1 enzyme. Inhibition of BACE1 cleavage of the QSY7-APP^swe-Eu substrate by inhibitors is manifested as a suppression of 620 nm fluorescence.
Varying concentrations of inhibitors at 3× the final desired concentration in a volume of 10 ul are preincubated with purified human BACE1 catalytic domain (3 nM in 10 μl) for 30 minutes at 30° C. in reaction buffer containing 20 mM Na-Acetate pH 5.0, 10% glycerol, 0.1% Brij-35 and 7.5% DSMO. Reactions are initiated by addition of 10 μl of 600 nM QSY7-APP^swe-Eu substrate (200 nM final) to give a final reaction volume of 30 μl in a 384 well Nunc HTRF plate. The reactions are incubated at 30° C. for 1.5 hours. The 620 nm fluorescence is then read on a Rubystar HTRF plate reader (BMG Labtechnologies) using a 50 millisecond delay followed by a 400 millisecond acquisition time window. Inhibitor IC50 values are derived from non-linear regression analysis of concentration response curves. Ki values are then calculated from IC50 values using the Cheng-Prusoff equation using a previously determined […] for the QSY7-APP^swe-Eu substrate at BACE1.

[2] = molecular target: T1, purified human autoBACE-2 (Homo sapiens, UniProt Q9Y5Z0); test: BACE-2 Assay (BACE-HTRF assay); type: biochemical; settings: Ki calculated from IC50 using the Cheng-Prusoff equation; QSY7-EISEVNLDAEFC-Eu-amide substrate 200 nM, pH 5.0; read-out: BACE2 Ki
T1 sequence (Q9Y5Z0 63-473 limits assumed): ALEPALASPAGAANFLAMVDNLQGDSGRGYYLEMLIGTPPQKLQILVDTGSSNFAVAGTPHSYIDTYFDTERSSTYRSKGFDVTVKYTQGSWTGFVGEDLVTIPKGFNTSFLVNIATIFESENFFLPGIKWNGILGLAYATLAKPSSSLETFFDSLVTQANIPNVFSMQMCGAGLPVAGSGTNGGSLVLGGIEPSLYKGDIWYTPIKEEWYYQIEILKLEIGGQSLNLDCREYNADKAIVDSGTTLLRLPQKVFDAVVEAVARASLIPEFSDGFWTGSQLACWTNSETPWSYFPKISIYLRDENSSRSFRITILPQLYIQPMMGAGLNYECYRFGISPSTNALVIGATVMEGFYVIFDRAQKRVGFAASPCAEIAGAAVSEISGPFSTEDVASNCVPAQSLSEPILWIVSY
Description: Inhibitor ICsos at purified human autoBACE-2 are determined in a time-resolved endpoint proteolysis assay that measures hydrolysis of the QSY7-EISEVNLDAEFC-Eu-amide FRET peptide substrate (BACE-HTRF assay). BACE-mediated hydrolysis of this peptide results in an increase in relative fluorescence (RFU) at 620 nm after excitation with 320 nm light. Inhibitor compounds, prepared at 3× the desired final concentration in 1×BACE assay buffer (20 mM sodium acetate pH 5.0, 10% glycerol, 0.1% Brij-35) supplemented with 7.5% DMSO are preincubated with an equal volume of autoBACE-2 enzyme diluted in 1×BACE assay buffer (final enzyme concentration 1 nM) in black 384-well NUNC plates for 30 minutes at 30° C. The assay is initiated by addition of an equal volume of the QSY7-EISEVNLDAEFC-Eu-amide substrate (200 nM final concentration, […]) prepared in 1×BACE assay buffer supplemented with 7.5% DMSO and incubated for 90 minutes at 30° C. DMSO is present at 5% final concentration in the assay. Following laser excitation of sample wells at 320 nm, the fluorescence signal at 620 nm is collected for 400 ms following a 50 μs delay on a RUBYstar HTRF plate reader (BMG Labtechnologies). Raw RFU data is normalized to maximum (1.0 nM BACE/DMSO) and minimum (no enzyme/DMSO) RFU values. IC50s are determined by nonlinear regression analysis (sigmoidal dose response, variable slope) of percent inhibition data with minimum and maximum values set to 0 and 100 percent respectively. Similar IC50s are obtained when using raw RFU data. The Ki values are calculated from the IC50 using the Cheng-Prusoff equation.

soluble human BACE1 catalytic domain, sequence (P56817 75-416 limits assumed): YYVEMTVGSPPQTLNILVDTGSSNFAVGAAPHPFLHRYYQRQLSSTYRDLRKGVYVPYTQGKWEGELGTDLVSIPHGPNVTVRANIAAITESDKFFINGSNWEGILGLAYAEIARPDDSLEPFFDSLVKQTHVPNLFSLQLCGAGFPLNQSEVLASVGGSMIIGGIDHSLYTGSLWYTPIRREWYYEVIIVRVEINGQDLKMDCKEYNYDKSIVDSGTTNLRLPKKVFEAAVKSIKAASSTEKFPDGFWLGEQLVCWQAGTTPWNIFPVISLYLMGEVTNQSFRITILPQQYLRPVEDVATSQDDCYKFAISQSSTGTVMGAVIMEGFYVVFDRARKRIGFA

Molecule `CC1(C)C(=N)N[C@@]2(CCOc3ccc(NC(=O)c4cnc(C(F)(F)F)cn4)cc32)CS1(=O)=O` [Example C-24] has a Ki [1] of 39 nM and a Ki [2] of 184 nM.
`CC1(C)C(=N)N[C@@]2(CCCc3ccc(NC(=O)c4ccc(OCF)cn4)cc32)CS1(=O)=O` [Example G-18] gave a Ki [1] of 18 nM and a Ki [2] of 7 nM.
In the case of `COc1ccc(C(=O)Nc2ccc3c(c2)[C@]2(CCO3)CS(=O)(=O)C(C)(C)C(=N)N2)nc1` [Example B-2], the Ki [1] is reported as 58 nM and the Ki [2] is reported as 28 nM.
For `CC1(C)C(=N)N[C@@]2(COCc3ccc(NC(=O)c4cnc(C(F)(F)F)cn4)cc32)CS1(=O)=O` [Example E-21], the Ki [1] was 231 nM and the Ki [2] was 583 nM.
`CC1(C)C(=N)N[C@@]2(CCOc3ccc(NC(=O)c4cc5ccccn5n4)cc32)CS1(=O)=O` [Example C-5] showed a Ki [1] of 223 nM and a Ki [2] of 49 nM.
`CC1(C)C(=N)N[C@@]2(CCCc3ccc(NC(=O)c4cc5ccccn5n4)cc32)CS1(=O)=O` [Example G-3] showed a Ki [1] of 503 nM and a Ki [2] of 74 nM.
Molecule `COc1cnc(C(=O)Nc2ccc3c(c2)[C@]2(CCO3)CS(=O)(=O)C(C)(C)C(=N)N2)c(C)n1` [Example C-21] has a Ki [1] of 40 nM and a Ki [2] of 20 nM.
For `CC1(C)C(=N)N[C@@]2(CCOc3ccc(NC(=O)C(F)F)cc32)CS1(=O)=O` [Example B-4], the Ki [1] was 1280 nM and the Ki [2] was 115 nM.
In the case of `Cc1nc(C(=O)Nc2ccc3c(c2)[C@]2(COC3)CS(=O)(=O)C(C)(C)C(=N)N2)co1` [Example E-23], the Ki [1] is reported as 66 nM and the Ki [2] is reported as 7 nM.
For `Cc1cc(C#N)cnc1C(=O)Nc1ccc2c(c1)[C@]1(CCO2)CS(=O)(=O)C(C)(C)C(=N)N1` [Example C-22], the Ki [1] was 2 nM and the Ki [2] was 3 nM.
`COc1cnc(C(=O)Nc2ccc3c(c2)[C@]2(COC3)CS(=O)(=O)C(C)(C)C(=N)N2)c(C)c1` [Example E-11] gave a Ki [1] of 59 nM and a Ki [2] of 5 nM.
`CC1(C)C(=N)N[C@@]2(COCc3ccc(NC(=O)c4cnsn4)cc32)CS1(=O)=O` [Example E-9] gave a Ki [1] of 171 nM and a Ki [2] of 23 nM.
For `C#CCOc1cnc(C(=O)Nc2ccc3c(c2)[C@]2(COC3)CS(=O)(=O)C(C)(C)C(=N)N2)cn1` [Example E-4], the Ki [1] was 20 nM and the Ki [2] was 72 nM.
`C#CCOc1cnc(C(=O)Nc2ccc3c(c2)[C@]2(CCC3)CS(=O)(=O)C(C)(C)C(=N)N2)cn1` [Example G-5] showed a Ki [1] of 7 nM and a Ki [2] of 20 nM.
`CC1(C)C(=N)N[C@@]2(CCCc3ccc(NC(=O)c4cn5cc(C#N)ccc5n4)cc32)CS1(=O)=O` [Example G-23] was tested, and the Ki [1] was 138 nM and the Ki [2] was 1120 nM.
In the case of `CC1(C)C(=N)N[C@@]2(CCOc3ccc(NC(=O)c4cnc(OCCF)cn4)cc32)CS1(=O)=O` [Example C-12], the Ki [1] is reported as 45 nM and the Ki [2] is reported as 98 nM.
With `CC1(C)C(=N)N[C@@]2(CCCc3ccc(NC(=O)c4ncc(C(F)(F)F)cn4)cc32)CS1(=O)=O` [Example G-22] the Ki [1] was 160 nM and the Ki [2] was 161 nM.
Work on `CC1(C)C(=N)N[C@@]2(COCc3ccc(NC(=O)c4ccn(C(F)F)n4)cc32)CS1(=O)=O` [Example E-7] yielded a Ki [1] of 12 nM and a Ki [2] of 2 nM.
`CC1(C)C(=N)N[C@@]2(CCOc3ccc(NC(=O)c4ncc(C(F)(F)F)cn4)cc32)CS1(=O)=O` [Example C-16] was tested, and the Ki [1] was 107 nM and the Ki [2] was 98 nM.
`COc1cnc(C(=O)Nc2ccc3c(c2)[C@]2(CCC3)CS(=O)(=O)C(C)(C)C(=N)N2)cn1` [Example G-11] gave a Ki [1] of 92 nM and a Ki [2] of 57 nM.
For `CC1(C)C(=N)N[C@@]2(CCCc3ccc(NC(=O)c4cnsn4)cc32)CS1(=O)=O` [Example G-2], the Ki [1] was 35 nM and the Ki [2] was 7 nM.
In the case of `CC1(C)C(=N)N[C@@]2(CCOc3ccc(NC(=O)c4ncc(Cl)cc4F)cc32)CS1(=O)=O` [Example C-17], the Ki [1] is reported as 8 nM and the Ki [2] is reported as 2 nM.
`CC1(C)C(=N)N[C@@]2(COCc3ccc(NC(=O)c4ccc(OC(F)F)cn4)cc32)CS1(=O)=O` [Example E-18] was tested, and the Ki [1] was 34 nM and the Ki [2] was 76 nM.
`CC1(C)C(=N)N[C@@]2(CCOc3ccc(NC(=O)c4ccc(C#N)cn4)cc32)CS1(=O)=O` [Example C-15] gave a Ki [1] of 3 nM and a Ki [2] of 9 nM.
Molecule `CC1(C)C(=N)N[C@@]2(CCOc3ccc(NC(=O)c4ccn(C(F)F)n4)cc32)CS1(=O)=O` [Example C-1] has a Ki [1] of 3 nM and a Ki [2] of 1 nM.
Molecule `CC1(C)C(=N)N[C@@]2(COCc3ccc(NC(=O)c4cnc(OCC(F)(F)F)cn4)cc32)CS1(=O)=O` [Example E-16] has a Ki [1] of 101 nM and a Ki [2] of 402 nM.
`CC1(C)C(=N)N[C@@]2(CCCc3ccc(NC(=O)c4ccn(C(F)F)n4)cc32)CS1(=O)=O` [Example G-4] was tested, and the Ki [1] was 4 nM and the Ki [2] was 1 nM.
In the case of `CC1(C)C(=N)N[C@@]2(COCc3ccc(NC(=O)c4cc5ccccn5n4)cc32)CS1(=O)=O` [Example E-2], the Ki [1] is reported as 1200 nM and the Ki [2] is reported as 200 nM.
`CC1(C)C(=N)N[C@@]2(CCCc3ccc(NC(=O)c4cnc(OCCF)cn4)cc32)CS1(=O)=O` [Example G-17] showed a Ki [1] of 140 nM and a Ki [2] of 156 nM.
`CC1(C)C(=N)N[C@@]2(CCCc3ccc(NC(=O)c4ccc(OC(F)(F)F)cn4)cc32)CS1(=O)=O` [Example G-16] was tested, and the Ki [1] was 13 nM and the Ki [2] was 51 nM.
Work on `CC1(C)C(=N)N[C@@]2(COCc3ccc(NC(=O)c4ccc(OC(F)(F)F)cn4)cc32)CS1(=O)=O` [Example E-3] yielded a Ki [1] of 50 nM and a Ki [2] of 175 nM.
`CC1(C)C(=N)N[C@@]2(CCCc3ccc(NC(=O)c4ccc(C#N)cn4)cc32)CS1(=O)=O` [Example G-21] was tested, and the Ki [1] was 4 nM and the Ki [2] was 12 nM.
Work on `Cc1nc(C(=O)Nc2ccc3c(c2)[C@]2(CCC3)CS(=O)(=O)C(C)(C)C(=N)N2)co1` [Example G-19] yielded a Ki [1] of 21 nM and a Ki [2] of 3 nM.
`CC1(C)C(=N)N[C@@]2(CCOc3ccc(NC(=O)c4ccc(Cl)cn4)cc32)CS1(=O)=O` [Example B-1] gave a Ki [1] of 8 nM and a Ki [2] of 2 nM.
In the case of `COc1cnc(C(=O)Nc2ccc3c(c2)[C@]2(COC3)CS(=O)(=O)C(C)(C)C(=N)N2)c(C)n1` [Example E-20], the Ki [1] is reported as 218 nM and the Ki [2] is reported as 60 nM.
With `CC1(C)C(=N)N[C@@]2(CCOc3ccc(NC(=O)c4ccc(F)cn4)cc32)CS1(=O)=O` [Example C-9] the Ki [1] was 33 nM and the Ki [2] was 5 nM.
Molecule `CC1(C)C(=N)N[C@@]2(CCCc3ccc(NC(=O)c4ccc(F)cn4)cc32)CS1(=O)=O` [Example G-14] has a Ki [1] of 55 nM and a Ki [2] of 7 nM.
`COc1ccc(C(=O)Nc2ccc3c(c2)[C@]2(COC3)CS(=O)(=O)C(C)(C)C(=N)N2)nc1` [Example E-10] was tested, and the Ki [1] was 118 nM and the Ki [2] was 29 nM.
`C#CCOc1ccc(C(=O)Nc2ccc3c(c2)[C@]2(CCO3)CS(=O)(=O)C(C)(C)C(=N)N2)nc1` [Example C-19] was tested, and the Ki [1] was 7 nM and the Ki [2] was 48 nM.
With `CC1(C)C(=N)N[C@@]2(CCOc3ccc(NC(=O)c4cn5cc(C#N)ccc5n4)cc32)CS1(=O)=O` [Example C-8] the Ki [1] was 121 nM and the Ki [2] was 157 nM.
With `CC#CCOc1ccc(C(=O)Nc2ccc3c(c2)[C@]2(CCO3)CS(=O)(=O)C(C)(C)C(=N)N2)nc1` [Example C-18] the Ki [1] was 3 nM and the Ki [2] was 45 nM.
